Our source for the GI50 and TGI values is PubChem BioAssay (NCI).

Test systems include UACC-62 melanoma; HT29 colon; NCI-H23 lung; A549 NSCLC; K-562 leukemia; SK-MEL-2 melanoma; COLO 205 colon; KM12 colon; SNB-19 CNS; MALME-3M melanoma.
What all share (test): NCI-60 cell line screen, 48 h

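Growth conditions: 96-well plates. Treatment: test compound, 48 hours, 5 concentrations. Analysis: linear interpolation between bracketing concentrations; unreached endpoints set to highest concentration. GI50 = concentration required for 50% inhibition of growth. TGI: concentration producing complete growth inhibition.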

Regarding `COc1c(C(=O)/C=C/c2ccccc2)c(O)cc2occc12`, the GI50 with UACC-62 melanoma is 4.15 µM; in the assay on HT29 colon it was 6.34 µM; with NCI-H23 lung, 6.12 µM; with A549 NSCLC, 8.62 µM; in the assay on K-562 leukemia, 4.42 µM; in the assay on SK-MEL-2 melanoma, 12.4 µM. Also, the GI50 is 15.7 µM in the assay with COLO 205 colon, 3.71 µM in the assay on KM12 colon and 7.33 µM in the assay on SNB-19 CNS. Also, the TGI in the assay on UACC-62 melanoma is 15.1 µM; in the assay on HT29 colon it was 35.6 µM; in the assay on NCI-H23 lung, 20.8 µM; in the assay with A549 NSCLC, 29 µM; with K-562 leukemia it was above 100 µM; with SK-MEL-2 melanoma, 25.2 µM. The TGI in the assay with COLO 205 colon is 29.9 µM; with KM12 colon it was 13.3 µM; with SNB-19 CNS it was 20.4 µM.
In the case of `CCCCNC1CCCCC[C@H]1O` (stereo not given in full), the TGI in the assay on UACC-62 melanoma, in the assay on HT29 colon, in the assay with NCI-H23 lung, in the assay with A549 NSCLC, with K-562 leukemia and in the assay with SK-MEL-2 melanoma was above 100 µM in each case. The TGI in the assay with COLO 205 colon, with KM12 colon and in the assay with SNB-19 CNS was above 100 µM throughout.
Consider `S=c1ssc(N2CCOCC2)c1Cl`, for which the GI50 was 26.5 µM in the assay on UACC-62 melanoma; 47.4 µM with HT29 colon; 29.1 µM in the assay on NCI-H23 lung; above 100 µM in the assay with A549 NSCLC; 26.3 µM in the assay on K-562 leukemia; above 100 µM with SK-MEL-2 melanoma. For the same molecule, the GI50 in the assay with COLO 205 colon is above 100 µM; in the assay on KM12 colon it was 31 µM; with SNB-19 CNS it was above 100 µM. For the same molecule, the TGI with UACC-62 melanoma, in the assay with HT29 colon, with NCI-H23 lung, in the assay with A549 NSCLC, in the assay on K-562 leukemia and in the assay on SK-MEL-2 melanoma was above 100 µM each time. For the same molecule, the TGI in the assay on COLO 205 colon, with KM12 colon and in the assay with SNB-19 CNS was above 100 µM each time.
`c1cnn(CN(Cn2cccn2)Cn2cccn2)c1`: the TGI in the assay with UACC-62 melanoma, in the assay on NCI-H23 lung, with A549 NSCLC, in the assay with K-562 leukemia, with SK-MEL-2 melanoma and in the assay on COLO 205 colon was above 100 µM throughout. Moreover, the TGI in the assay on KM12 colon and in the assay on SNB-19 CNS was above 100 µM throughout.
For the molecule `COC(=O)Nc1nc2ccc(C3(c4ccc(F)cc4)OCCO3)cc2[nH]1`, the GI50 with UACC-62 melanoma was 0.619 µM; in the assay on HT29 colon, 0.317 µM; in the assay on NCI-H23 lung, 1.14 µM; in the assay with A549 NSCLC it was 0.417 µM; in the assay on K-562 leukemia it was 0.112 µM; in the assay with SK-MEL-2 melanoma, 0.427 µM. The GI50 was 0.297 µM in the assay on COLO 205 colon, 0.352 µM in the assay on KM12 colon and 0.483 µM with SNB-19 CNS. Moreover, the TGI in the assay on UACC-62 melanoma, in the assay on HT29 colon, in the assay on NCI-H23 lung, in the assay on A549 NSCLC, in the assay on K-562 leukemia and in the assay on SK-MEL-2 melanoma was above 100 µM each time. Further, the TGI was 2.88 µM in the assay on COLO 205 colon, above 100 µM in the assay with KM12 colon and above 100 µM in the assay with SNB-19 CNS.
As for `c1ccc(C2N3CCCCC3[C@@H]3c4[nH]c5ccccc5c4CCN23)nc1` (stereo not given in full), the TGI in the assay with UACC-62 melanoma, in the assay on HT29 colon, in the assay with NCI-H23 lung, in the assay on A549 NSCLC, with K-562 leukemia and in the assay with SK-MEL-2 melanoma was above 100 µM throughout. This molecule also returned a TGI in the assay on SNB-19 CNS above 100 µM.
Consider `[N-]=[N+]=C1C(=O)NN=C1c1ccccc1`, for which the TGI in the assay on MALME-3M melanoma, with HT29 colon, in the assay on NCI-H23 lung, with A549 NSCLC, in the assay with K-562 leukemia and in the assay on SK-MEL-2 melanoma was above 100 µM each time. The TGI with COLO 205 colon and with KM12 colon was above 100 µM throughout.
For `O=C(N/N=C/c1cc(Br)ccc1O)N/N=C/c1cc(Br)ccc1O`, the TGI in the assay on MALME-3M melanoma, in the assay on HT29 colon, in the assay on NCI-H23 lung, in the assay on A549 NSCLC, with K-562 leukemia and in the assay on COLO 205 colon was above 100 µM each time. In addition, the TGI with KM12 colon and with SNB-19 CNS was above 100 µM throughout.
For `COc1ccc(-c2cc(-c3cc(C)cc(Br)c3O)no2)cc1`, the TGI in the assay with UACC-62 melanoma is 38.9 µM; in the assay with HT29 colon, above 100 µM; with NCI-H23 lung, 99.7 µM; with A549 NSCLC, 57 µM; with K-562 leukemia, above 100 µM; with SK-MEL-2 melanoma, 75 µM. Besides, the TGI with KM12 colon was above 100 µM; in the assay with SNB-19 CNS, 58 µM.
`COc1cc2ncnc(-n3ncc4cc(NC(=O)Nc5ccccc5)ccc43)c2cc1OC`: the GI50 with UACC-62 melanoma is 1.23 µM; in the assay with HT29 colon, 0.615 µM; with NCI-H23 lung, 1.3 µM; with A549 NSCLC it was 1.79 µM; in the assay with K-562 leukemia, 2.86 µM; with SK-MEL-2 melanoma it was 1.34 µM. The GI50 was 1.32 µM in the assay on COLO 205 colon, 0.207 µM in the assay with KM12 colon and 2.29 µM in the assay on SNB-19 CNS. Also, the TGI in the assay on UACC-62 melanoma stood at 6.27 µM; in the assay on HT29 colon, 10.9 µM; with NCI-H23 lung it was 4.4 µM; in the assay on A549 NSCLC, 8.74 µM; in the assay with K-562 leukemia it was 15.5 µM; with SK-MEL-2 melanoma it was 3.51 µM. Besides, the figures for the TGI in the assay on COLO 205 colon, in the assay with KM12 colon and in the assay with SNB-19 CNS were 4.53 µM, 5.27 µM and 17.7 µM, respectively.
